Test results reported in patent publication US11485751B2, “Apramycin derivatives” (WAYNE STATE UNIVERSITY, priority 2017, dated 2022).
≈ marks a conversion by molar mass, not a printed value. Where two headings read alike, the source gives them in different places.

Key:
[1] = test system: AG212, Escherichia coli ATCC25922; assay: MIC reference strain AG212; type: cell-based; details: for MIC: Escherichia coli
Excerpt: (§1) Minimal inhibitory concentrations (MIC) have been determined by broth microdilution assays (CLSI. Methods for Dilution Antimicrobial Susceptibility Tests for Bacteria That Grow Aerobically; Approved Standard—Tenth Edition. CLSI document M07-A10. Wayne, Pa.: Clinical and Laboratory Standards Institute; 2015.).
(§2) Table 4 and 5 show the antibacterial activity of the compounds of the invention against bacterial reference strains (table 4) and against representative clinical isolates (table 5).
(§3) Legend to Tables: GEN, gentamicin; AMK, amikacin; PLZ, plazomicin; APR, apramycin; AG212, Escherichia coli ATCC25922; AG215, Klebsiella pneumonia; AG220, Pseudomonas aeruginosa ATCC27853; AG225, Acinetobacter baumannii pittii; AG290, Enterobacter cloacae; […], Mycobacterium smegmatis. MICs for AG192 have been determined in the presence of 0.5 μg/mL of ampicillin in the medium to mimic the synergistic effect of aminoglycoside and β-lactam antibiotics combination therapy in the treatment of Enterococcus infections in humans.

[2] = test system: clinical isolates carrying AAC(3)-IV; assay: MIC broth microdilution, AAC(3)-IV; type: cell-based; details: clinical isolates, IMM Univ. Zurich, AAC(3)-IV
Excerpt: as §1
(§4) Minimal inhibitory concentrations (MICs, […]) against clinical isolates from Institute of Medical Microbiology, Univ. Zurich, and the IC50 values for bacterial, human mitochondrial and human cytosolic ribosomes are indicated.
(§5) Minimal inhibitory concentrations (μg/ml) against clinical isolates from Institute of Medical Microbiology, Univ. Zurich, and the IC50 values for bacterial, human mitochondrial and human cytosolic ribosomes are indicated.
(§6) The Minimal inhibitory concentrations (MICs, μg/ml) against clinical isolates from Institute of Medical Microbiology, Univ Zurich, and the IC50 values for bacterial, human mitochondrial and human cytosolic ribosomes are indicated.

[3] = test system: Engineered E. coli pH427 rmtF; assay: Activity against G1405-methylated 16S-rRNA, E. coli pH427 rmtF; type: cell-based
Excerpt: as §1

[4] = test system: AG215, Klebsiella pneumonia; assay: MIC reference strain AG215; type: cell-based; details: for MIC: Klebsiella pneumoniae, read-out: MIC AG215 K. pneumonia
Excerpt: as §1, §2, §3

AG001 E. coli WT = assay: Antibacterial activity, clinical isolate AG001; type: cell-based; design: unit not given here
Excerpt: as §1, §2

[5] = test system: AG220, Pseudomonas aeruginosa ATCC27853; assay: MIC reference strain AG220; type: cell-based; details: for MIC: Pseudomonas aeruginosa
Excerpt: as §1, §2, §3

[6] = test system: Engineered E. coli pH426 rmtC; assay: Activity against G1405-methylated 16S-rRNA, E. coli pH426 rmtC; type: cell-based
Excerpt: as §1

AG031 P. aer. APH(3′)-II = assay: Antibacterial activity, clinical isolate AG031; type: cell-based; design: unit not given here
Excerpt: as §1, §2

AG003 E. coli AAC(3)-II = assay: Antibacterial activity, clinical isolate AG003; type: cell-based
Excerpt: as §1, §2

AG173 E. coli AAC(3)-IV = assay: Antibacterial activity, clinical isolate AG173; type: cell-based
Excerpt: as §1, §2

[7] = test system: SZ380, Mycobacterium smegmatis; assay: MIC reference strain SZ380; type: cell-based; details: reference strain
Excerpt: as §1, §2, §3

AG055 E. coli WT = assay: Antibacterial activity, clinical isolate AG055; type: cell-based; design: unit not given here
Excerpt: as §1, §2

[8] = test system: human cytosolic ribosomes; assay: in-vitro translation assay, human cytosolic ribosomes; type: biochemical
Excerpt: (§7) IC50 values for bacterial, human chimeric, and rabbit reticulocyte ribosomes have been determined by in-vitro translation assays as described previously (Proc. Nat. Ac. Sci USA 2012, 109(27):10984-10989).
as §4

AG038 MRSA = assay: Antibacterial activity, clinical isolate AG038; type: cell-based; design: unit not given here
Excerpt: as §1, §2

isolates carrying apmA = assay: MIC broth microdilution, apmA; type: cell-based; details: apmA resistance gene
Excerpt: as §1, with “2015.). […]” for “2015.).”
as §5, §6

[9] = test system: Engineered E. coli pH425 rmtB; assay: Activity against G1405-methylated 16S-rRNA, E. coli pH425 rmtB; type: cell-based
Excerpt: as §1

bacterial ribosomes = assay: in-vitro translation assay, bacterial ribosomes; type: biochemical
Excerpt: as §7, §4

[10] = test system: Engineered E. coli AG103 armA; assay: Activity against G1405-methylated 16S-rRNA, E. coli AG103 armA; type: cell-based
Excerpt: as §1

[11] = test system: Engineered E. coli pH430 WT; assay: Activity, engineered E. coli pH430 WT; type: cell-based; details: wild type
Excerpt: as §1

WT clinical isolates = assay: MIC broth microdilution, WT; type: cell-based; details: wild type; for MIC: read-out: MIC WT, clinical isolates, IMM Univ. Zurich
Excerpt: as §1, §4, §5, §6

ATCC19977 M. abcessus = assay: MIC reference strain ATCC19977; type: cell-based
Excerpt: as §1, §2

[12] = test system: AG033 P. aer. APH(3′)-II AAC(6′)-I; assay: Antibacterial activity, clinical isolate AG033; type: cell-based; design: unit not given here
Excerpt: as §1, §2

[13] = test system: AG290, Enterobacter cloacae; assay: MIC reference strain AG290; type: cell-based; details: for MIC: Enterobacter cloacae, read-out: MIC AG290 E. cloacae
Excerpt: as §1, §2, §3

AG032 P. aer. APH(3′)-II = assay: Antibacterial activity, clinical isolate AG032; type: cell-based; design: unit not given here
Excerpt: as §1, §2

[14] = test system: human mitochondrial ribosomes; assay: in-vitro translation assay, human mitochondrial (human chimeric) ribosomes; type: biochemical
Excerpt: as §7, §4

[15] = test system: AG039 MRSA AAC(6′)-I ANT(4′)-I; assay: Antibacterial activity, clinical isolate AG039; type: cell-based
Excerpt: as §1, §2

[16] = test system: Engineered E. coli pH424 armA; assay: Activity against G1405-methylated 16S-rRNA, E. coli pH424 armA; type: cell-based
Excerpt: as §1

[17] = test system: AG225, Acinetobacter baumannii pittii; assay: MIC reference strain AG225; type: cell-based; details: for MIC: Acinetobacter baumannii, read-out: MIC AG225 A. baumannii
Excerpt: as §1, §2, §3

[18] = test system: AG042 MRSA AAC(6′)-I ANT(4′)-I APH(2′); assay: Antibacterial activity, clinical isolate AG042; type: cell-based; design: unit not given here
Excerpt: as §1, §2

| Structure (SMILES) | Activity E. coli pH427 rmtF [3] | Antibacterial activity AG001 E. coli WT (AG001 E. coli WT) | Activity E. coli pH426 rmtC [6] | Antibacterial activity AG031 P. aer. APH(3′)-II (AG031 P. aer. APH(3′)-II) | Antibacterial activity AG003 E. coli AAC(3)-II (AG003 E. coli AAC(3)-II) | Antibacterial activity AG173 E. coli AAC(3)-IV (AG173 E. coli AAC(3)-IV) | Antibacterial activity AG055 E. coli WT (AG055 E. coli WT) | IC50 [8] [µM] | Antibacterial activity AG038 MRSA (AG038 MRSA) | MIC apmA (isolates carrying apmA) [µg/mL] | Activity E. coli pH425 rmtB [9] | IC50 (bacterial ribosomes) [µM] | Activity E. coli AG103 armA [10] | Activity E. coli pH430 WT [11] | Antibacterial activity AG033 P. aer. APH(3′)-II AAC(6′)-I [12] | Antibacterial activity AG032 P. aer. APH(3′)-II (AG032 P. aer. APH(3′)-II) | IC50 [14] [µM] | Antibacterial activity AG039 MRSA AAC(6′)-I ANT(4′)-I [15] | Activity E. coli pH424 armA [16] | Antibacterial activity AG042 MRSA AAC(6′)-I ANT(4′)-I APH(2′) [18] | also measured |
| --- | --- | --- | --- | --- | --- | --- | --- | --- | --- | --- | --- | --- | --- | --- | --- | --- | --- | --- | --- | --- | --- |
| CNC1C(OC2OC(CO)C(N)C(O)C2O)OC2CC(N)C(OC3C(N)CC(N)C(O)C3F)OC2C1O (stereo not drawn) [DC168, 5-Deoxy-5-epi-fluoro apramycin] | 2 | 8 | 2 | 8-16 | 4 | 128 | 4 | 28 | 2-4 | 4 (≈ 7.39 µM) | 2 | 0.05 | 1 | 2 | 32 | 8-16 | 30 | 2-4 | 2 | 4 | MIC AG212 E. coli ([1]; reference strain ATCC25922): 4 µg/mL; MIC AAC(3)-IV [2]: >32 µg/mL; MIC AG215 K. pneumonia ([4]; reference strain): 1 µg/mL; MIC AG220 P. aeruginosa ([5]; reference strain ATCC27853): 4 µg/mL; MIC SZ380 M. smegmatis [7]: 0.125 µg/mL; MIC WT (WT clinical isolates; clinical isolates, IMM Univ. Zurich): 2 µg/mL (≈ 3.69 µM); MIC ATCC19977 M. abcessus (ATCC19977 M. abcessus; reference strain): 1 µg/mL (≈ 1.85 µM); MIC AG290 E. cloacae ([13]; reference strain): 4 µg/mL; MIC AG225 A. baumannii ([17]; reference strain): 4 µg/mL |
| CNC1C(OC2OC(CO)C(N)C(O)C2O)OC2CC(N)C(OC3C(N)CC(N)C(O)C3OCC(O)CN)OC2C1O (stereo not shown) [DC212] |  | 8 |  | 8 |  |  |  | 112 | 4 |  |  | 0.1 |  |  |  |  | 158 |  |  |  | MIC ([1]; ATCC25922, read-out: MIC AG212 E. coli): 4 µg/mL; MIC [4]: 2 µg/mL; MIC ([5]; ATCC27853, read-out: MIC AG220 P. aeruginosa): 4 µg/mL; MIC (WT clinical isolates): 4 µg/mL (≈ 6.53 µM); MIC [13]: 4 µg/mL; MIC [17]: 4 µg/mL |
| CNC1C(OC2OC(CO)C(N)C(O)C2O)OC2CC(N)C(OC3C(N)CC(N)C(O)C3F)OC2C1O (stereo not shown) [DC170, 5-Deoxy-5-fluoro apramycin] | 4 | 8 | 4 | 8-16 | 8 | 64 | 4 | 74 | 4-8 | 32 (≈ 59.1 µM) | 4 | 0.06 | 2 | 4 | 32 | 16 | 62 | 4-8 | 2 | 8 | MIC ([1]; reference strain ATCC25922, read-out: MIC AG212 E. coli): 4 µg/mL; MIC ([2]; read-out: MIC AAC(3)-IV): > 32 µg/mL; MIC ([4]; reference strain): 2 µg/mL; MIC ([5]; ATCC27853, reference strain ATCC27853, read-out: MIC AG220 P. aeruginosa): 8 µg/mL; MIC ([7]; Mycolicibacterium smegmatis, read-out: MIC SZ380 M. smegmatis): 0.25 µg/mL; MIC (WT clinical isolates): 4 µg/mL (≈ 7.39 µM); MIC (ATCC19977 M. abcessus; read-out: MIC ATCC19977 M. abcessus): 1 µg/mL (≈ 1.85 µM); MIC ([13]; reference strain): 4 µg/mL; MIC ([17]; reference strain): 4 to 8 µg/mL |
